Laboratory results as given in ChEMBL document CHEMBL3885881, “DrugMatrix”.

Organism: Rattus norvegicus
Assay: DrugMatrix - Regimen: Daily Repeat
Assay type: toxicity, organism-based, Sprague-Dawley
Set-up: regimen Daily Repeat, gender Male, age 6-8 weeks
Conditions: in vivo, po, route oral GAVAGE, vehicle .5 % CMC; for ABSOLUTE BASOPHIL / ABSOLUTE EOSINOPHIL / ABSOLUTE LYMPHOCYTE / ABSOLUTE MONOCYTE / ABSOLUTE SEGMENTED NEUTROPHIL / BASOPHIL / EOSINOPHIL / ERYTHROCYTE COUNT / HEMATOCRIT / HEMOGLOBIN / LEUKOCYTE COUNT / LYMPHOCYTE / MEAN CORPUSCULAR HEMOGLOBIN / MEAN CORPUSCULAR HEMOGLOBIN CONCENTRATION / MEAN CORPUSCULAR VOLUME / MONOCYTE / NEUTROPHIL / NUCLEATED RED BLOOD CELLS / PLATELET COUNT: tissue Blood; for ALANINE AMINOTRANSFERASE / ALBUMIN / ALKALINE PHOSPHATASE / ASPARTATE AMINOTRANSFERASE / BLOOD UREA NITROGEN / CARBON DIOXIDE / CHLORIDE / CHOLESTEROL / CREATINE PHOSPHOKINASE / CREATININE / GLUCOSE / LACTATE DEHYDROGENASE / LIPASE / PHOSPHORUS / POTASSIUM / SODIUM / TOTAL BILIRUBIN / TOTAL PROTEIN / URIC ACID: tissue Plasma
[1] = 0 mg/kg, 72 h, dose level Control, time 3 day
[2] = 0 mg/kg, 120 h, dose level Control, time 5 day
[3] = 385.5 mg/kg, 72 h, dose level Low, time 3 day

## Cn1c(=O)c2c(ncn2CC(O)CO)n(C)c1=O (centres undefined) [DYPHYLLINE]
[1]
  ABSOLUTE BASOPHIL: 0 CELLS/uL
  ABSOLUTE EOSINOPHIL: 32.5 CELLS/uL
  ABSOLUTE LYMPHOCYTE: 13494.17 CELLS/uL
  ABSOLUTE MONOCYTE: 474 CELLS/uL
  ABSOLUTE SEGMENTED NEUTROPHIL: 1932.67 CELLS/uL
  BASOPHIL: 0%
  EOSINOPHIL: 0.17%
  ERYTHROCYTE COUNT: 5.45 x10E6/uL
  HEMATOCRIT: 34.32%
  HEMOGLOBIN: 13.82 G/DL
  LEUKOCYTE COUNT: 15.93 x10E3/uL
  LYMPHOCYTE: 84.83%
  MEAN CORPUSCULAR HEMOGLOBIN: 25.38 pg
  MEAN CORPUSCULAR HEMOGLOBIN CONCENTRATION: 40.27 G/DL
  MEAN CORPUSCULAR VOLUME: 63.05 fL
  MONOCYTE: 3%
  NEUTROPHIL: 12%
  NUCLEATED RED BLOOD CELLS: 0.67 /100WBC
  PLATELET COUNT: 1188.5 x10E3/uL
  ALANINE AMINOTRANSFERASE: 54.83 u/L
  ALBUMIN: 4.22 G/DL
  ALKALINE PHOSPHATASE: 427.67 u/L
  ASPARTATE AMINOTRANSFERASE: 86.5 u/L
  BLOOD UREA NITROGEN: 15.33 mg/dL
  CARBON DIOXIDE: 24.83 mmol/L
  CHLORIDE: 102.33 MEQ/L
  CHOLESTEROL: 71.67 mg/dL
  CREATINE PHOSPHOKINASE: 442.5 u/L
  CREATININE: 0.19 mg/dL
  GLUCOSE: 160.67 mg/dL
  LACTATE DEHYDROGENASE: 236.5 u/L
  LIPASE: 9 u/L
  PHOSPHORUS: 11.97 mg/dL
  POTASSIUM: 6.2 MEQ/L
  SODIUM: 142.85 MEQ/L
  TOTAL BILIRUBIN: 0.2 mg/dL
  TOTAL PROTEIN: 5.8 G/DL
  URIC ACID: 1.3 mg/dL
[2]
  ABSOLUTE BASOPHIL: 0 CELLS/uL
  ABSOLUTE EOSINOPHIL: 114.5 CELLS/uL
  ABSOLUTE LYMPHOCYTE: 14614 CELLS/uL
  ABSOLUTE MONOCYTE: 173 CELLS/uL
  ABSOLUTE SEGMENTED NEUTROPHIL: 1048.5 CELLS/uL
  BASOPHIL: 0%
  EOSINOPHIL: 0.67%
  ERYTHROCYTE COUNT: 5.66 x10E6/uL
  HEMATOCRIT: 35.52%
  HEMOGLOBIN: 14.27 G/DL
  LEUKOCYTE COUNT: 15.95 x10E3/uL
  LYMPHOCYTE: 91.33%
  MEAN CORPUSCULAR HEMOGLOBIN: 25.23 pg
  MEAN CORPUSCULAR HEMOGLOBIN CONCENTRATION: 40.2 G/DL
  MEAN CORPUSCULAR VOLUME: 62.7 fL
  MONOCYTE: 1.17%
  NEUTROPHIL: 6.83%
  NUCLEATED RED BLOOD CELLS: 0.33 /100WBC
  PLATELET COUNT: 1229 x10E3/uL
  ALANINE AMINOTRANSFERASE: 58.67 u/L
  ALBUMIN: 4.32 G/DL
  ALKALINE PHOSPHATASE: 382.5 u/L
  ASPARTATE AMINOTRANSFERASE: 81.67 u/L
  BLOOD UREA NITROGEN: 17.67 mg/dL
  CARBON DIOXIDE: 27.17 mmol/L
  CHLORIDE: 102.33 MEQ/L
  CHOLESTEROL: 63.67 mg/dL
  CREATINE PHOSPHOKINASE: 227.67 u/L
  CREATININE: 0.23 mg/dL
  GLUCOSE: 155.33 mg/dL
  LACTATE DEHYDROGENASE: 146.5 u/L
  LIPASE: 10.67 u/L
  PHOSPHORUS: 11.93 mg/dL
  POTASSIUM: 6.85 MEQ/L
  SODIUM: 143.95 MEQ/L
  TOTAL BILIRUBIN: 0.18 mg/dL
  TOTAL PROTEIN: 6.02 G/DL
  URIC ACID: 1.63 mg/dL
[3]
  ABSOLUTE BASOPHIL: 0 CELLS/uL
  ABSOLUTE EOSINOPHIL: 40.67 CELLS/uL
  ABSOLUTE LYMPHOCYTE: 10748 CELLS/uL
  ABSOLUTE MONOCYTE: 461.33 CELLS/uL
  ABSOLUTE SEGMENTED NEUTROPHIL: 1483.33 CELLS/uL
  BASOPHIL: 0%
  EOSINOPHIL: 0.33%
  ERYTHROCYTE COUNT: 5.3 x10E6/uL
  HEMATOCRIT: 33.37%
  HEMOGLOBIN: 13.27 G/DL
  LEUKOCYTE COUNT: 12.73 x10E3/uL
  LYMPHOCYTE: 86%
  MEAN CORPUSCULAR HEMOGLOBIN: 25.13 pg
  MEAN CORPUSCULAR HEMOGLOBIN CONCENTRATION: 39.8 G/DL
  MEAN CORPUSCULAR VOLUME: 63.07 fL
  MONOCYTE: 3%
  NEUTROPHIL: 10.67%
  NUCLEATED RED BLOOD CELLS: 0.33 /100WBC
  PLATELET COUNT: 1358 x10E3/uL
  ALANINE AMINOTRANSFERASE: 42.67 u/L
  ALBUMIN: 4.03 G/DL
  ALKALINE PHOSPHATASE: 400.67 u/L
  ASPARTATE AMINOTRANSFERASE: 72 u/L
  BLOOD UREA NITROGEN: 15.67 mg/dL
  CARBON DIOXIDE: 25.33 mmol/L
  CHLORIDE: 103 MEQ/L
  CHOLESTEROL: 72.33 mg/dL
  CREATINE PHOSPHOKINASE: 199.67 u/L
  CREATININE: 0.14 mg/dL
  GLUCOSE: 152 mg/dL
  LACTATE DEHYDROGENASE: 149.67 u/L
  LIPASE: 9.33 u/L
  PHOSPHORUS: 13 mg/dL
  POTASSIUM: 7.04 MEQ/L
  SODIUM: 144.5 MEQ/L
  TOTAL BILIRUBIN: 0.17 mg/dL
  TOTAL PROTEIN: 5.57 G/DL
  URIC ACID: 1.53 mg/dL
